US20150111815A1, “NOVEL CYCLOSPORIN DERIVATIVES FOR THE TREATMENT AND PREVENTION OF VIRAL INFECTIONS” (S&T Global Inc., priority 2011, published 2015)

Key:
HCV = conditions: reported in Hopkins, S. et al., 2010; read-out: in vitro anti-HCV activity (EC50); cited from earlier work
[1] = tested on: HCV replicon in cell line ET (luc-ubi-neo/ET), Huh7 human hepatoma cells; assay: HCV subgenomic replicon assay (luciferase end point); assay type: cell-based; conditions: HCV replicon-derived luciferase activity, Huh7 ET cells; read-out: Antiviral activity: IC50
Method: The anti-HCV activity of cyclosporine derivatives were evaluated in the HCV subgenomic replicon assay. The assay use the cell line ET (luc-ubi-neo/ET), which is a Huh7 human hepatoma cell line harboring an HCV replicon with a stable luciferase (Luc) reporter. HCV RNA replication was assessed by quantifying HCV replicon-derived luciferase activity. The antiviral activity of cyclosporine analogs were evaluated after drug treatment, the EC 50 and EC 90 were determined in subsequent assessments by using the luciferase end point (Krieger, N., et al., 2001, J. Virol. 75, 4614-4624; Pietschmann, T., et al., 2002, J. Virol. 76, 4008-4021; each of which is incorporated herein by reference).

Compound	EC50 (HCV) [nM]	IC50 [1] [nM]
C/C=C/C[C@@H](C)[C@@H](O)[C@H]1C(=O)N[C@@H](CC)C(=O)N(C)[C@H](SCCN(C)C)C(=O)N(C)[C@@H](CC(C)(C)O)C(=O)N[C@@H](C(C)C)C(=O)N(C)[C@@H](CC(C)C)C(=O)N[C@@H](C)C(=O)N[C@H](C)C(=O)N(C)[C@@H](CC(C)C)C(=O)N(C)[C@@H](CC(C)C)C(=O)N(C)[C@@H](C(C)C)C(=O)N1C [SCY-635]	100	–
C/C=C/C[C@@H](C)[C@@H](O)[C@H]1C(=O)N[C@@H](CC)C(=O)N(C)C(CCCN(C)C)C(=O)N(C)[C@@H](CC(C)C)C(=O)N[C@@H](C(C)C)C(=O)N(C)[C@@H](CC(C)C)C(=O)N[C@@H](C)C(=O)N[C@H](C)C(=O)N(C)[C@@H](CC(C)C)C(=O)N(C)[C@@H](CC(C)C)C(=O)N(C)[C@@H](C(C)C)C(=O)N1C (stereo partly drawn) [[(R,S)-3-(N,N-Dimethylamino)propyl-Sar]-3-cyclosporin]	–	< 1500
[(R)-2-(N,N-Dimethylamino)ethyl-Sar]-3-[NMeLeu]-4-cyclosporin	–	< 250
[(R,S)-2-(N,N-Dimethylamino)ethyl-Sar]-3-cyclosporin	–	< 1500
[(S)-2-(N,N-Diethylamino)ethyl-Sar]-3-cyclosporin	–	< 5000
